# According to ChEMBL document CHEMBL5390226, “Synthesis and Staphylococcus aureus biofilm inhibitory activity of indolenine-substituted pyrazole and pyrimido[1,2-b]indazole derivatives” (Bioorg Med Chem, 2023):
# Activity calls are given as the source filed them. The calls are words filed in the database; no cut-off is given here.
# Experiments:
# [1] = test system: Staphylococcus aureus; assay: Antibiofilm activity against methicillin-susceptible Staphylococcus aureus ATCC 29213 assessed as inhibition of biofilm formation incubated for 24 hrs by crystal violet staining based analysis; assay type: functional; conditions: dose 1.56-100 µg/ml
# [2] = test system: Staphylococcus aureus; assay: Antibiofilm activity against methicillin-susceptible Staphylococcus aureus ATCC 29213 assessed as biofilm eradication incubated for 24 hrs by crystal violet staining based analysis; assay type: functional
# [3] = test system: Staphylococcus aureus; assay: Antibiofilm activity against methicillin-resistant Staphylococcus aureus ATCC 33591 assessed as biofilm eradication incubated for 24 hrs by crystal violet staining based analysis; assay type: functional
# [4] = test system: Staphylococcus aureus; assay: Antibiofilm activity against methicillin-resistant Staphylococcus aureus ATCC 33591 assessed as inhibition of biofilm formation incubated for 24 hrs by crystal violet staining based analysis; assay type: functional; conditions: dose 1.56-100 µg/ml
# [5] = Cytotoxicity against human A549 cells assessed as inhibition of cell growth measured after 48 hrs by MTT assay; assay type: toxicity, cell-based
# [6] = test system: Staphylococcus aureus; assay: Antibiofilm activity against methicillin-resistant Staphylococcus aureus ATCC 33591 assessed as disruption of biofilm incubated for 24 hrs by crystal violet staining based inverted microscopic analysis; assay type: functional, organism-based; conditions: dose 1.56-12.5 µg/ml
# [7] = test system: Staphylococcus aureus; assay: Antibacterial activity against methicillin-resistant Staphylococcus aureus ATCC 33591 assessed as bacterial growth inhibition incubated for 24 hrs by CLSI based microbroth dilution method; assay type: functional
# [8] = test system: Staphylococcus aureus; assay: Antibacterial activity against methicillin-resistant Staphylococcus aureus ATCC 33591 assessed as MBC to MIC ratio; assay type: functional
# [9] = test system: Staphylococcus aureus; assay: Antibacterial activity against methicillin-resistant Staphylococcus aureus ATCC ATCC 33591 assessed as planktonic growth inhibition at 25 to 50 ug/mL incubated for 24 hrs; assay type: functional, organism-based; conditions: dose 25-50 µg/ml
# [10] = test system: Staphylococcus aureus; assay: Antibiofilm activity against methicillin-susceptible Staphylococcus aureus ATCC 29213 assessed as disruption of biofilm incubated for 24 hrs by crystal violet staining based inverted microscopic analysis; assay type: functional, organism-based; conditions: dose 1.56-12.5 µg/ml
# [11] = test system: Staphylococcus aureus; assay: Antibacterial activity against methicillin-susceptible Staphylococcus aureus ATCC 29213 assessed as bacterial growth inhibition incubated for 24 hrs by CLSI based microbroth dilution method; assay type: functional
# [12] = test system: Staphylococcus aureus; assay: Antibacterial activity against methicillin-susceptible Staphylococcus aureus ATCC 29213 assessed as planktonic growth inhibition at 25 to 50 ug/mL incubated for 24 hrs; assay type: functional, organism-based; conditions: dose 25-50 µg/ml
SMILES,MBIC50 [1],MBEC50 [2],MBIC50 [4],further results
CC1(C)C(c2cnn(-c3ccc(C(=O)Nc4ccc(F)cc4)cc3)c2)=Nc2ccc3ccccc3c21,>100 µg/mL,,,
CC1(C)C(c2cnn(-c3ccc(C(=O)NCc4cccnc4)cc3)c2)=Nc2ccccc21,>100 µg/mL,,,
COc1ccc2c(c1)C(C)(C)C(c1cnc3c4ccc(Br)cc4nn3c1)=N2,>100 µg/mL,>100 µg/mL,,
COc1ccc2c(c1)C(C)(C)C(c1cnc3c4ccc(C(F)(F)F)cc4nn3c1)=N2,100 µg/mL,>100 µg/mL,,MBEC50 [3]: 100 µg/mL
CC1(C)C(c2cnn(-c3ccc(C(=O)NCCc4ccccc4)cc3)c2)=Nc2ccccc21,>100 µg/mL,,,
CC1(C)C(c2cnn(-c3ccc(C(=O)NCc4ccc(F)cc4)cc3)c2)=Nc2ccc3ccccc3c21,>100 µg/mL,,,
COc1ccc2c(c1)C(C)(C)C(c1cnn(-c3ccc(C(=O)O)cc3)c1)=N2,12.5 µg/mL,>100 µg/mL,100 µg/mL,
CC1(C)C(c2cnc3c4ccc(C(F)(F)F)cc4nn3c2)=Nc2ccccc21,100 µg/mL,>100 µg/mL,12.5 µg/mL,
COc1cccc2nn3cc(C4=Nc5c(ccc6ccccc56)C4(C)C)cnc3c12,12.5 µg/mL,>100 µg/mL,,
CC1(C)C(c2cnn(-c3ccc(C(=O)NCc4ccccc4)cc3)c2)=Nc2ccccc21,>100 µg/mL,,,
Cc1ccc(NC(=O)c2ccc(-n3cc(C4=Nc5ccccc5C4(C)C)cn3)cc2)cc1,>100 µg/mL,,,
CCOC(=O)c1ccc2c(c1)C(C)(C)C(c1cnc3c4ccc(C(F)(F)F)cc4nn3c1)=N2,100 µg/mL,>100 µg/mL,,MBEC50 [3]: 100 µg/mL
CC1(C)C(c2cnc3c4ccccc4nn3c2)=Nc2ccc3ccccc3c21,>100 µg/mL,>100 µg/mL,50 µg/mL,
COc1ccc(NC(=O)c2ccc(-n3cc(C4=Nc5ccccc5C4(C)C)cn3)cc2)cc1,>100 µg/mL,,,
COc1ccc2c(c1)C(C)(C)C(c1cnc3c4ccccc4nn3c1)=N2,>100 µg/mL,>100 µg/mL,50 µg/mL,
N=C(NCCCCCCNC(=N)NC(=N)Nc1ccc(Cl)cc1)NC(=N)Nc1ccc(Cl)cc1 [CHLORHEXIDINE],3.13 µg/mL,12.5 µg/mL,<=1.56 ug ml-1,MBEC50 [3]: 3.13 µg/mL
CC1(C)C(c2cnn(-c3ccc(C(=O)Nc4ccc(Cl)cc4)cc3)c2)=Nc2ccccc21,>100 µg/mL,,,
CC1(C)C(c2cnn(-c3ccc(C(=O)NCc4ccc(F)cc4)cc3)c2)=Nc2ccccc21,>100 µg/mL,,,
CC1(C)C(c2cnn(-c3ccc(C(=O)O)cc3)c2)=Nc2ccc(Cl)cc21,6.25 µg/mL,12.5 µg/mL,,IC50 at 48 h [5]: > 100 µg/mL; MBEC50 [3]: 50 µg/mL
CCOC(=O)c1ccc2c(c1)C(C)(C)C(c1cnc3c4ccc(Br)cc4nn3c1)=N2,>100 µg/mL,>100 µg/mL,,
CC1(C)C(c2cnn(-c3ccccc3)c2)=Nc2ccc(C(=O)O)cc21,12.5 µg/mL,>100 µg/mL,<=1.56 ug ml-1,IC50 at 48 h [5]: > 100 µg/mL; MBEC50 [3]: 25 µg/mL
CC1(C)C(c2cnn(-c3ccc(C(=O)Nc4ccc(Cl)cc4)cc3)c2)=Nc2ccc3ccccc3c21,>100 µg/mL,,,
CC1(C)C(c2cnn(-c3ccc(C(=O)Nc4ccncc4)cc3)c2)=Nc2ccc3ccccc3c21,>100 µg/mL,,,
CCOC(=O)c1ccc2c(c1)C(C)(C)C(c1cnc3c4c(OC)cccc4nn3c1)=N2,>100 µg/mL,>100 µg/mL,12.5 µg/mL,

SMILES,MBIC50 [1],MBEC50 [2],MBIC50 [4],further results
Cc1ccccc1NC(=O)c1ccc(-n2cc(C3=Nc4ccccc4C3(C)C)cn2)cc1,>100 µg/mL,,,
Oc1cc(Cl)ccc1Oc1ccc(Cl)cc1Cl [TRICLOSAN],<=1.56 ug ml-1,3.13 µg/mL,<=1.56 ug ml-1,MBEC50 [3]: 6.25 µg/mL
CC1(C)C(c2cnn(-c3ccc(C(=O)Nc4ccncc4)cc3)c2)=Nc2ccccc21,>100 µg/mL,,,
Cc1ccc(CNC(=O)c2ccc(-n3cc(C4=Nc5ccccc5C4(C)C)cn3)cc2)cc1,>100 µg/mL,,,
CC1(C)C(c2cnc3c4ccccc4nn3c2)=Nc2ccccc21,>100 µg/mL,100 µg/mL,100 µg/mL,MBEC50 [3]: >100 µg/mL
CC1(C)C(c2cnc3c4ccccc4nn3c2)=Nc2c1ccc1ccccc21,25 µg/mL,>100 µg/mL,6.25 µg/mL,
CC1(C)C(c2cnn(-c3ccc(C(=O)O)cc3)c2)=Nc2ccc3ccccc3c21,<=1.56 ug ml-1,12.5 µg/mL,3.13 µg/mL,inhibition [4]: Dose-Dependent Effect; Activity [6]: Dose-Dependent Effect; MIC [7]: 25 µg/mL; Ratio [8]: >4; inhibition [9]: Active; Activity [10]: Dose-Dependent Effect; MIC [11]: 25 µg/mL; IC50 at 48 h [5]: > 100 µg/mL; MBEC50 [3]: 6.25 µg/mL; inhibition [12]: Active; inhibition [1]: Dose-Dependent Effect
CC1(C)C(c2cnc3c4ccc(Br)cc4nn3c2)=Nc2c1ccc1ccccc21,>100 µg/mL,>100 µg/mL,50 µg/mL,
CC1(C)C(c2cnc3c4ccc(C(F)(F)F)cc4nn3c2)=Nc2ccc3ccccc3c21,50 µg/mL,>100 µg/mL,,
CC1(C)C(c2cnn(-c3ccc(C(=O)NC4CCCCC4)cc3)c2)=Nc2ccccc21,>100 µg/mL,,,
CN(C)c1ccccc1NC(=O)c1ccc(-n2cc(C3=Nc4ccccc4C3(C)C)cn2)cc1,>100 µg/mL,,,
CC1(C)C(c2cnn(-c3ccc(C(=O)NCCc4ccccc4)cc3)c2)=Nc2ccc3ccccc3c21,>100 µg/mL,,,
CC1(C)C(c2cnc3c4ccc(Br)cc4nn3c2)=Nc2ccccc21,>100 µg/mL,>100 µg/mL,100 µg/mL,
CC1(C)C(c2cnc3c4ccc(Br)cc4nn3c2)=Nc2ccc3ccccc3c21,>100 µg/mL,>100 µg/mL,,
CC1(C)C(c2cnn(-c3ccc(C(=O)Nc4ccc(F)cc4)cc3)c2)=Nc2ccccc21,>100 µg/mL,,,
CC1(C)C(c2cnc3c4ccc(C(F)(F)F)cc4nn3c2)=Nc2c1ccc1ccccc21,>100 µg/mL,>100 µg/mL,100 µg/mL,
CCCCNC(=O)c1ccc(-n2cc(C3=Nc4ccccc4C3(C)C)cn2)cc1,>100 µg/mL,,,
CC1(C)C(c2cnn(-c3ccc(C(=O)O)cc3)c2)=Nc2ccccc21,6.25 µg/mL,>100 µg/mL,50 µg/mL,
CCOC(=O)c1ccc2c(c1)C(C)(C)C(c1cnc3c4ccccc4nn3c1)=N2,>100 µg/mL,>100 µg/mL,100 µg/mL,
COc1ccc2c(c1)C(C)(C)C(c1cnc3c4c(OC)cccc4nn3c1)=N2,>100 µg/mL,>100 µg/mL,25 µg/mL,
CC1(C)C(c2cnn(-c3ccc(C(=O)Nc4ccccc4)cc3)c2)=Nc2ccccc21,>100 µg/mL,,,
COc1cccc2nn3cc(C4=Nc5ccc6ccccc6c5C4(C)C)cnc3c12,>100 µg/mL,>100 µg/mL,,MBEC50 [3]: 100 µg/mL
COc1cccc2nn3cc(C4=Nc5ccccc5C4(C)C)cnc3c12,50 µg/mL,>100 µg/mL,>100 µg/mL,
